This passage reports TGI results from PubChem BioAssay (NCI).

Assay in all cases: growth of human tumour cells (NCI), 48 h
Experiment [1] deals with SR leukemia.
In experiment [2] the test system is MCF7 breast.
For experiment [3], the system named is HCT-15 colon.
In experiment [4] the test system is SN12C renal.
Experiment [5] relates to OVCAR-4 ovarian.
Experiment [6] has as its system MDA-MB-231 breast.
The test system of experiment [7] is HOP-92 NSCLC.
Experiment [8] has as its system NCI-H226 lung.
The subject of experiment [9] is SK-MEL-2 melanoma.
For experiment [10], the system named is SNB-19 CNS.

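Protocol summary: plate cells (96-well), add compound at 5 concentrations, incubate 48 h, interpolate endpoints linearly. Definition used: TGI = concentration required for complete inhibition of growth.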

`COC(=O)C(Cc1ccccc1)NP(=O)(O)OCC1OC(n2cc(F)c(=O)[nH]c2=O)CC1O` (configuration not stated): the TGI was more than 56.5 µM in experiment [1]; more than 100 µM in experiment [2]; more than 100 µM in experiment [3]; more than 100 µM in [4]; more than 100 µM in experiment [5]; more than 100 µM in experiment [6]. Moreover, the TGI in experiment [7] is more than 55.2 µM; in [8], more than 100 µM; in [9], more than 100 µM; in experiment [10], more than 100 µM.
Consider `CCOc1cc(C2CC(c3ccc(NS(=O)(=O)c4cc([N+](=O)[O-])ccc4C)cc3)=NN2c2ccc([N+](=O)[O-])cc2[N+](=O)[O-])ccc1O` (configuration not stated), for which the TGI in [1] was more than 100 µM; in experiment [2] it was 42.1 µM; in experiment [3], more than 100 µM; in [4], 9.97 µM; in experiment [5] it was 11 µM; in experiment [6], 20.6 µM. In addition, the TGI is 29.3 µM in [7], 24 µM in experiment [8], 44.3 µM in experiment [9] and 34.5 µM in [10].
For the compound `c1ccc2c(c1)CCc1c-2n(CCN2CCOCC2)c2ccccc12`, the TGI in [1] was 38.3 µM; in experiment [2] it was more than 100 µM; in [3] it was more than 100 µM; in experiment [4] it was more than 100 µM; in experiment [5], more than 100 µM; in experiment [6], more than 100 µM. Further, the TGI in experiment [7] was 38.1 µM; in [8] it was more than 100 µM; in experiment [9] it was 25.8 µM; in [10], more than 100 µM.
For the compound `CC1(C)CC(=O)c2c(nc3ccc4ccccc4c3c2-c2ccc(NC(=O)CCCCCCCCC(=O)Nc3ccc(-c4c5c(nc6ccc7ccccc7c46)CC(C)(C)CC5=O)cc3)cc2)C1`, the TGI in experiment [1], in experiment [2], in [3], in [4], in experiment [6] and in [7] was more than 100 µM in each case. Also, the TGI in experiment [8], in experiment [9] and in [10] was more than 100 µM throughout.
Consider `O=C(Nc1nc2ccccc2s1)c1cc([N+](=O)[O-])ccc1Cl`, for which the TGI was more than 100 µM in experiment [1]; more than 22.6 µM in experiment [2]; more than 41.4 µM in experiment [3]; more than 100 µM in experiment [4]; more than 100 µM in experiment [5]; more than 100 µM in experiment [6]. The TGI in experiment [7] is more than 38.9 µM; in [8], more than 100 µM; in experiment [9], more than 100 µM; in experiment [10] it was more than 100 µM.
As to `O=C(O)c1nc(-c2ccccc2)[nH]c1C(=O)O`, the TGI was found to be 2.36 µM in experiment [1]; 15.7 µM in [2]; 38.8 µM in experiment [3]; 26.6 µM in experiment [4]; 32.1 µM in [5]; 11.3 µM in [6]. For the same compound, the TGI came to 32.4 µM in experiment [7], 33.1 µM in experiment [8], 21.3 µM in [9] and 25.1 µM in experiment [10].
Regarding `COc1ccc2c(c1)c(CC(=O)O)c(C)n2C(=O)c1ccc(Cl)cc1`, the TGI in [1], in experiment [2], in experiment [3], in experiment [4], in experiment [5] and in [6] was more than 100 µM each time. In addition, the TGI in [7], in [8], in experiment [9] and in experiment [10] was more than 100 µM throughout.
As to `Nc1ccccc1CC(O)C(=O)O` (configuration not stated), the TGI in [1], in experiment [2], in experiment [3], in [4], in experiment [6] and in experiment [7] was more than 100 µM throughout. The TGI in [8] and in [10] was more than 100 µM each time.
For the compound `COc1ccc(-n2c(=O)n(C)c(=O)n2-c2ccc(OC)cc2)cc1`, the TGI in experiment [1], in experiment [2], in [3], in [4], in experiment [6] and in experiment [7] was more than 100 µM throughout. Further, the TGI in experiment [8], in experiment [9] and in experiment [10] was more than 100 µM throughout.
For `COc1ccccc1NC(=O)CC(=O)N1N=C(C)C(N=Nc2ccc(C(=O)O)cc2)C1=O` (configuration not stated), the TGI in experiment [1], in [2], in experiment [3], in experiment [4], in [5] and in [6] was more than 100 µM in each case. Further, the TGI in [7], in experiment [9] and in [10] was more than 100 µM in each case.
In the case of `O=c1[nH]nc(-c2ccccc2)n1/N=C/c1cccnc1`, the TGI in [1], in experiment [2], in experiment [3], in [4], in experiment [6] and in experiment [7] was more than 100 µM in each case. Also, the TGI in experiment [8] and in experiment [10] was more than 100 µM throughout.
`CN(C)c1nc2oc(-c3ccccc3)c(-c3ccccc3)c2c2nnnn12`: the TGI in [1], in [2], in experiment [3], in experiment [4], in experiment [5] and in experiment [6] was more than 100 µM throughout. In addition, the TGI in experiment [7], in experiment [8] and in experiment [10] was more than 100 µM in each case.
Consider `COc1cc(/C=C2/C[C@H]3[C@@H]4CC=C5C[C@@H](OC(C)=O)CC[C@]5(C)[C@H]4CC[C@]3(C)NC2=O)cc(OC)c1OC`, for which the TGI in experiment [1] was more than 100 µM; in [2], more than 100 µM; in [3], more than 100 µM; in experiment [4] it was more than 100 µM; in [5], 62.3 µM; in experiment [6] it was 62.5 µM. For the same compound, the TGI in experiment [7] stood at 52.3 µM; in experiment [9] it was 52.4 µM; in experiment [10], 41.9 µM.
`O=C(c1cc(Cl)ccc1Cl)N1CCN(C(=O)c2cc(Cl)ccc2Cl)CC1`: the TGI in experiment [1], in [2], in experiment [3], in [4], in experiment [5] and in [6] was more than 100 µM each time. Moreover, the TGI in experiment [7], in experiment [8] and in experiment [10] was more than 100 µM throughout.
In the case of `O=C1c2cc3c(cc2CC12Cc1ccc4c(c1C2=O)CCCC4)CCCC3` (configuration not stated), the TGI is more than 100 µM in experiment [1]; more than 100 µM in experiment [2]; more than 100 µM in experiment [3]; 62.8 µM in experiment [5]; more than 100 µM in experiment [6]; 64.2 µM in [7]. Besides, the TGI in experiment [9] and in experiment [10] was more than 100 µM in each case.
For `C[C@H]1C[C@H]2[C@@H]3C(C)(C)O[C@]4(O)C(=O)[C@]5(O)[C@@H](C)CC[C@H]1[C@]25C(=O)[C@]34C`, the TGI in [1] was 96.6 µM; in experiment [2] it was more than 100 µM; in [3], more than 100 µM; in experiment [4], more than 100 µM; in experiment [6], more than 100 µM; in [7], 62.7 µM. The values for the TGI in experiment [8], in experiment [9] and in [10] were 98.2 µM, 84.3 µM and more than 100 µM, respectively.
In the case of `CCCCCC(C)SC1(C(=O)OC)CC(OC(C)=O)C(NC(C)=O)C([C@H](OC(C)=O)[C@@H](COC(C)=O)OC(C)=O)O1` (some centres not stated), the TGI in [1], in [2], in [3], in experiment [4], in experiment [6] and in experiment [7] was more than 100 µM each time. Further, the values for the TGI in experiment [8], in experiment [9] and in experiment [10] were more than 100 µM, 64.4 µM and more than 100 µM, respectively.
Consider `Oc1c([Si](c2ccccc2)(c2ccccc2)c2ccccc2)cc2ccccc2c1-c1c(O)c([Si](c2ccccc2)(c2ccccc2)c2ccccc2)cc2ccccc12`, for which the TGI in experiment [1], in experiment [2], in experiment [3], in experiment [5], in experiment [6] and in [7] was more than 100 µM in each case. For the same compound, the TGI in [9] and in experiment [10] was more than 100 µM in each case.
`CC1(C)C2C=CC1(C)C1(CC2)OCCO1` (configuration not stated): the TGI in experiment [1], in experiment [2], in [3], in experiment [4], in [5] and in experiment [6] was more than 100 µM throughout. For the same compound, the TGI in [8], in [9] and in experiment [10] was more than 100 µM in each case.
Take `N#Cc1c(-c2ccc(Cl)cc2)c2c(n(C3OC(CO)C(O)C(O)C3O)c1=S)CCC2` (configuration not stated): the TGI is more than 100 µM in experiment [1]; 40.9 µM in [2]; more than 100 µM in experiment [3]; more than 100 µM in [4]; more than 100 µM in [5]; more than 100 µM in [6]. The figures for the TGI in [7], in [9] and in experiment [10] were 60.7 µM, more than 100 µM and 71 µM, respectively.
